Source: patent publication US4826968A, “S-alkylated coenzyme A with effect on polyamine acetylase” (Research Corporation, priority 1985, dated 1989)

What was measured:
[1] = target: T1, spermidine/spermine N^1 -acetyltransferase (Rattus norvegicus, UniProt Q6P9U6); assay: Cytosolic spermidine acetyltransferase assay ([14C]acetyl Coenzyme A, cellulose phosphate paper); type: biochemical; conditions: for relative effectiveness in inhibiting the acetylation of spermidine and spermine: inhibitors compared with one another; for inhibitory activity towards spermidine/spermine N^1 -acetyltransferase / potency relative to the sym-norspermidine derivative: FIG. 2
T1 construct: Cytosolic spermidine acetyltransferase activity was extracted from the livers of male Sprague-Dawley rats; from tissue; host or cells: liver of male Sprague-Dawley rats, 6 h after intraperitoneal carbon tetrachloride; cytosolic extract
T1 sequence (Q6P9U6 1-171): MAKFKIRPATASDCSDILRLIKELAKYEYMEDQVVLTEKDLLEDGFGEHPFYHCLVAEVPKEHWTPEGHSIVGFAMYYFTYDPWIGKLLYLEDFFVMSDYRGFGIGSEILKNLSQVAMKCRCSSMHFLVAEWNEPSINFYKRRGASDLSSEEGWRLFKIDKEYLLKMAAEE
Experimental: Spermidine acetyltransferase activity was assayed in a volume of 100 μl containing 100 μg of extract protein, 300 nmol spermidine, 0.8 nmol (40 nCi) [1^14 C] acetyl Coenzyme A and 10 μmol tris-HCl (pH 7.8). The reaction was allowed to proceed at 30° C. for 10 min and was terminated by the addition of 20 μl of 1M NH2 OH.HCl. Protein was precipitated by boiling the samples for 3 min and was removed by centrifugation. 50 μl of the supernatant was applied to a 2.2 cm diameter disc of cellulose phosphate paper and was allowed to dry. The discs were washed in a beaker five times with water and three times with ethanol.
Non-enzymatic blank values for both histone and spermidine acetylation assays were routinely obtained by incubations of all the reactants excluding enzyme in the appropriate buffer.

[2] = tested on: histone acetylation; conditions: mammalian cells; cited from earlier work
[3] = tested on: exoerythrocyctic infection (malaria); assay: Animal studies of malaria; type: in vivo
[4] = tested on: rat hematoma cells; assay: DNA replication and proliferation of rat hematoma cells in culture; type: cell-based
[5] = tested on: ventral prostate gland; assay: Prostate gland secretion, growth and regrowth in rats; type: in vivo
[6] = tested on: Pneumocystis carinii; assay: Treatment of Pneumocystis carinii pneumonia; type: in vivo; conditions: opportunistic infection in the setting of AIDS
[7] = tested on: murine tumors; assay: Murine tumors, alone and in combination with three cytotoxic agents; type: in vivo
[8] = target: T1, spermidine/spermine N^1 -acetyltransferase; assay: Cytosolic spermidine acetyltransferase assay ([14C]acetyl Coenzyme A, cellulose phosphate paper); type: biochemical; conditions: highly purified spermidine/spermine N^1 -acetyltransferase; FIG. 1
[9] = tested on: Trypanosoma brucei brucei; assay: Replication of and infection by Trypanosoma brucei brucei; conditions: in vivo
[10] = tested on: embryogenesis; assay: Fertility, implantation and embryonic development in treated mice; type: in vivo
[11] = tested on: tumor growth; assay: Experimental tumor models, tumor growth; type: in vivo; conditions: several experimental tumor models
[12] = tested on: human prostate gland adenoma cells; assay: DNA replication and proliferation of human prostate gland adenoma cells in culture; type: cell-based
[13] = female mice treated prior to copulation and up to 18 days after fecundation

For `NCCCN` [1,3-diaminopropane], the “relative effectiveness in inhibiting the acetylation of spermidine and spermine” value [1] was “marginal superiority to putrescine”.
With `CC(C)(COP(=O)(O)OP(=O)(O)OC[C@H]1O[C@@H](n2cnc3c(N)ncnc32)[C@H](O)[C@@H]1OP(=O)(O)O)[C@@H](O)C(=O)NCCC(=O)NCCSCC(=O)NCCCNCCCCN` [I, N-[2-(S-Coenzyme A)acetyl] spermidine amide] the “inhibitory activity towards spermidine/spermine N^1 -acetyltransferase” value [1] was “strong inhibitors” and the “potency relative to the sym-norspermidine derivative” value [1] was “more than an order of magnitude less potent”.
With `CC(C)(COP(=O)(O)OP(=O)(O)OC[C@H]1O[C@@H](n2cnc3c(N)ncnc32)[C@H](O)[C@@H]1OP(=O)(O)O)[C@@H](O)C(=O)NCCC(=O)NCCSCC(=O)NCCCCNCCCN` [II, N-[2-(S-Coenzyme A)acetyl] spermidine amide] the “inhibitory activity towards spermidine/spermine N^1 -acetyltransferase” value [1] was “strong inhibitors” and the “potency relative to the sym-norspermidine derivative” value [1] was “more than an order of magnitude less potent”.
For `CC(C)(COP(=O)(O)OP(=O)(O)OC[C@H]1O[C@@H](n2cnc3c(N)ncnc32)[C@H](O)[C@@H]1OP(=O)(O)O)[C@@H](O)C(=O)NCCC(=O)NCCSCC(=O)NCCCNCCCCN` [N-[2-(S-Coenzyme A)acetyl] spermidine amide], the histone acetylation [2] is listed as “inhibit histone acetylation”.
With `CC(C)(COP(=O)(O)OP(=O)(O)OC[C@H]1O[C@@H](n2cnc3c(N)ncnc32)[C@H](O)[C@@H]1OP(=O)(O)O)[C@@H](O)C(=O)NCCC(=O)NCCSCC(=O)NCCCNCCCN` [N-[2-(S-Coenzyme A)acetyl] sym-norspermidine amide] the “efficacy against exoerythrocyctic infection” value [3] was “effective therapeutic agent”, the DNA replication [4] was “inhibits DNA replication” and the cell proliferation [4] was “retards proliferation”. The androgen-induced prostatic regrowth ([5]; castrated rats) was “marked slowing”, the prostate gland secretion ([5]; rats) was “effectively inhibited” and the “growth of the ventral prostate gland” value ([5]; rats, versus control group) was “significantly less than in the control group”. For the same molecule, the “efficacy in Pneumocystis carinii pneumonia” value [6] was “effective in treatment”, the “antitumor effect alone versus each cytotoxic drug” value ([7]; alone) was “superior to those of each cytotoxic drug” and the “antitumor effect of combination with cytotoxic agents” value ([7]; combination with any of three cytotoxic agents) was “synegistic”. For the same molecule, the “inhibition of the acetylation of spermidine” value [8] was “very potent inhibitor”, the “inhibition of the acetylation of spermidine” value ([1]; crude cytosolic extracts from livers of carbon tetrachloride treated rats, FIG. 1) was “very potent inhibitor” and the “dependence of the inhibition on substrate concentration” value ([1]; no full kinetic analysis) was “greater when the assays were carried out at lower concentrations with either substrate”. For the same molecule, the T.b. brucei infection [9] was “completely eliminating the infection”, the “replication of Trypanosoma brucei brucei” value [9] was “inhibits the replication” and the implantation [10, 13] was “no effect”. The subsequent embryonic development [10, 13] was “totally inhibited”, the fertility ([10]; male and female mice treated prior to mating with untreated animals) was “no effect on fertility” and the tumor growth [11] was “Marked retardation or arrest of tumor growth”. For the same molecule, the DNA replication [12] was “inhibits DNA replication” and the cell proliferation [12] was “retards proliferation”.
With `CC(C)(COP(=O)(O)OP(=O)(O)OC[C@H]1O[C@@H](n2cnc3c(N)ncnc32)[C@H](O)[C@@H]1OP(=O)(O)O)[C@@H](O)C(=O)NCCC(=O)NCCSCC(=O)NCCCN` [amide derived from 1,3-diaminopropane] the “potency relative to the sym-norspermidine derivative” value [1] was “much less active” and the “inhibition relative to coenzyme A” value ([1]; FIG. 2C) was “marginally more inhibitory than coenzyme A”.
In the case of `CC(C)(COP(=O)(O)OP(=O)(O)OC[C@H]1O[C@@H](n2cnc3c(N)ncnc32)[C@H](O)[C@@H]1OP(=O)(O)O)[C@@H](O)C(=O)NCCC(=O)NCCSCC(=O)NCCCCN` [amide derived from putrescine], the “potency relative to the sym-norspermidine derivative” value [1] is reported as “much less active”.
For `NCCCCN` [putrescine], the “relative effectiveness in inhibiting the acetylation of spermidine and spermine” value [1] was “least effective”.
With `CC(C)(COP(=O)(O)OP(=O)(O)OC[C@H]1O[C@@H](n2cnc3c(N)ncnc32)[C@H](O)[C@@H]1OP(=O)(O)O)[C@@H](O)C(=O)NCCC(=O)NCCSCC(=O)NCCCCNCCCCN` [sym-homospermidine derivative] the “potency relative to the sym-norspermidine derivative” value [1] was “ten times less active”.
With `NCCCCNCCCCN` [sym-homospermidine] the “relative effectiveness in inhibiting the acetylation of spermidine and spermine” value [1] was “an order more effectiveness than the other two compounds”.
